Data: ChEMBL document CHEMBL1201862, “PubChem BioAssay data set” (2004)
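Briefly, cells in 96-well plates were exposed to five compound concentrations for 48 h, and endpoints were estimated by linear interpolation. GI50 = concentration required for 50% inhibition of growth.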 Calls of active or inactive are those of the source. Rule as the data show it: active = GI50 up to about 1.1 µM and inactive = higher.

Legend:
Assay in all cases: DTP human tumour cell line panel, 48 h
DMS-114 = test system: DMS-114
HOP-18 = test system: HOP-18
LXFL 529 = test system: LXFL 529
M19-MEL = test system: M19-MEL
MDA-N = test system: MDA-N
T47D = test system: T47D
XF498 = test system: XF498
SNB-78 = test system: SNB-78

| SMILES | GI50 (MDA-N) | GI50 (T47D) | also measured |
| --- | --- | --- | --- |
| Cc1ccc2c(c1CCCC(C)(C)O)C(=O)C(O)=C(C(C)C)C2=O | – | – | GI50 (DMS-114): 39.1 µM (inactive); GI50 (HOP-18): > 100 µM (inactive); GI50 (LXFL 529): 62.1 µM (inactive); GI50 (M19-MEL): 96.6 µM (inactive) |
| CC1=C(C(=O)NNC(=O)C(N)=O)CC(C(=O)NNC(=O)C(N)=O)=C(C)N1 | > 100 µM (inactive) | > 100 µM (inactive) | – |
| Cc1ccc2c(c1C)CC1(Cc3c(ccc4c3CCC4)C1=O)C2=O (stereo not drawn) | > 100 µM (inactive) | > 100 µM (inactive) | – |
| O=C(c1cccc(OCc2ccccc2)c1OCc1ccccc1)N1CCSC1=S | 27.9 µM (inactive) | 5.66 µM (inactive) | – |
| CSc1ccc(-c2cc(-c3nc4ccccc4[nH]3)nc3[nH]c(-c4nc5ccccc5[nH]4)cc(=O)c23)cc1 | – | 95.1 µM (inactive) | – |
| Cn1c(=O)n(CC2CS2)c2ccccc21 (stereo not drawn) | – | – | GI50 (DMS-114): 50.9 µM (inactive); GI50 (LXFL 529): > 100 µM (inactive); GI50 (M19-MEL): > 100 µM (inactive); GI50 (XF498): > 100 µM (inactive) |
| CCC1(O)CC(CCN(Cc2ccccc2)C(=O)OCc2ccccc2)C(OCc2ccccc2)C1O (stereo not drawn) | 26.8 µM (inactive) | 12.2 µM (inactive) | – |
| COc1ccc(/N=C2/SC(=N/N=c3\sc4ccccc4n3C)S/C2=N/c2ccc(OC)cc2)cc1 | > 100 µM (inactive) | 23.3 µM (inactive) | – |
| ClC1=NN=C(c2c[nH]c3ccccc23)CC1NCc1ccccc1 (stereo not drawn) | > 100 µM (inactive) | > 100 µM (inactive) | – |
| CN1OC(=O)N(C)C1c1ccccc1 (stereo not drawn) | – | – | GI50 (DMS-114): > 100 µM (inactive); GI50 (HOP-18): > 100 µM (inactive); GI50 (M19-MEL): > 100 µM (inactive); GI50 (SNB-78): > 100 µM (inactive); GI50 (XF498): > 100 µM (inactive) |
| N#CC1(C#N)C2=C(CCCC2)NC(c2ccc(Br)cc2)C1(C#N)C#N (stereo not drawn) | 4.26 µM (inactive) | 2.26 µM (inactive) | – |
| CC1(n2nc(-c3ccccc3)n(-c3ccccc3)c2=O)CSC1 | – | – | GI50 (DMS-114): 69.5 µM (inactive); GI50 (LXFL 529): > 100 µM (inactive); GI50 (M19-MEL): > 100 µM (inactive); GI50 (SNB-78): > 100 µM (inactive); GI50 (XF498): 58.9 µM (inactive) |
| COc1ccc([C@H]2CC(=O)C[C@H](c3ccc(OC)cc3OC)C23C(=O)c2ccccc2C3=O)c(OC)c1 | > 100 µM (inactive) | > 100 µM (inactive) | – |
| Cc1cccc(C2NC(=O)c3ccccc3N2)c1 (stereo not drawn) | 0.543 µM (active) | > 100 µM (inactive) | – |
| CN(CC(=O)N1CC(CCl)c2ccc([N+](=O)[O-])cc21)CC(=O)N1CC(CCl)c2ccc([N+](=O)[O-])cc21 (stereo not drawn) | > 100 µM (inactive) | – | – |
| CCCCCCCCCCCCCCCCCCNc1ccn(C2OC(COP(=O)(O)OCC3OC(n4cc(C)c(=O)[nH]c4=O)CC3O)C(O)C2O)c(=O)n1 (stereo not drawn) | 18.4 µM (inactive) | 17.3 µM (inactive) | – |
| Nc1nc(Cl)c2ncn(Cc3ccc(CCl)cc3)c2n1 | – | 6.98 µM (inactive) | – |

| SMILES | GI50 (MDA-N) | GI50 (T47D) | also measured |
| --- | --- | --- | --- |
| CN1N=C(c2ccncc2)OC1c1ccc(C(F)(F)F)cc1 (stereo not drawn) | > 100 µM (inactive) | 0.495 µM (active) | – |
| OC(c1nc2ccccc2s1)(C(F)(F)F)C(F)(F)F | > 100 µM (inactive) | > 100 µM (inactive) | – |
| CS(=O)(=O)c1nc(-c2cc3c(c(S(C)(=O)=O)n2)CCC3)cc2c1CCCCC2 | > 100 µM (inactive) | – | – |
| CNC(=O)OCc1nc(SC)n(C)c1COC(=O)NC | 161 µM (inactive) | 171 µM (inactive) | GI50 (DMS-114): 80.5 µM (inactive); GI50 (HOP-18): 232 µM (inactive); GI50 (M19-MEL): 182 µM (inactive); GI50 (SNB-78): 68.4 µM (inactive); GI50 (XF498): 253 µM (inactive) |
| O=C1/C(=C/c2cccc([N+](=O)[O-])c2)CCCc2ccccc21 | 9.33 µM (inactive) | – | – |
| CCN(CC)c1ccc(C2SCC(=O)N2c2ccc(NC(=O)c3ccc(N4C(=O)CSC4c4ccc(N(CC)CC)cc4)cc3)cc2)cc1 (stereo not drawn) | – | 26.2 µM (inactive) | – |
| CCOC(=O)c1c(-c2ccccc2)c(-c2ccccc2)cn1C | > 10 µM (inactive) | – | – |
| Cc1cccc(NC(=O)/C=C/c2ccccc2)c1C | > 100 µM (inactive) | > 100 µM (inactive) | – |
| CC(C)(CC1(C)NC(=O)NC1=O)OCc1ccccc1 (stereo not drawn) | – | > 100 µM (inactive) | – |
| Nc1cc(Cl)cc2cc(Cl)cnc12 | > 100 µM (inactive) | 26.4 µM (inactive) | – |
| CCOC(=O)NC(C(F)(F)F)(C(F)(F)F)P(=O)(OC(C)C)OC(C)C | > 100 µM (inactive) | – | – |
| CC1(c2ccc(Cl)cc2)C2C(=O)NC(=O)C1C(=O)NC2=O (stereo not drawn) | – | – | GI50 (LXFL 529): > 100 µM (inactive); GI50 (M19-MEL): > 100 µM (inactive); GI50 (SNB-78): > 100 µM (inactive); GI50 (XF498): > 100 µM (inactive) |
| CN1Cc2cc(O)c(O)cc2C(O)C1 (stereo not drawn) | 55.2 µM (inactive) | > 100 µM (inactive) | – |
| COc1cc(OC)c(C#N)c(OC)c1C | – | – | GI50 (DMS-114): > 100 µM (inactive); GI50 (LXFL 529): > 100 µM (inactive); GI50 (M19-MEL): > 100 µM (inactive); GI50 (SNB-78): > 100 µM (inactive); GI50 (XF498): 5.62 µM (inactive) |
| CCOC(OC1=C(C#N)CCCC1)C(CC)[Se]c1ccccc1[N+](=O)[O-] (stereo not drawn) | – | – | GI50 (DMS-114): 15.7 µM (inactive); GI50 (HOP-18): 26.5 µM (inactive); GI50 (LXFL 529): 26.5 µM (inactive); GI50 (M19-MEL): 19.1 µM (inactive); GI50 (SNB-78): 25.5 µM (inactive); GI50 (XF498): 30.2 µM (inactive) |
| COc1ccc(/C(Cl)=C(\CN(C)C)c2ccc(OC)c(OC)c2)cc1OC.[B] | – | – | GI50 (HOP-18): > 100 µM (inactive); GI50 (LXFL 529): > 100 µM (inactive); GI50 (SNB-78): 10.1 µM (inactive) |
| Cc1ccc(OCC2OC(C#N)C(Oc3ccc(C)cc3)C2Oc2ccc(C)cc2)cc1 (stereo not drawn) | – | > 100 µM (inactive) | – |
